Experimental data from PubChem BioAssay (NCI).
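How tested: cells in 96-well plates exposed to compound for 48 hours at five concentrations. TGI: total growth inhibition.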

Tests used:
Test in all cases: DTP human tumour cell line panel, 48 h
HS 578T breast = system: HS 578T breast
OVCAR-8 ovarian = system: OVCAR-8 ovarian
OVCAR-4 ovarian = system: OVCAR-4 ovarian
SN12C renal = system: SN12C renal
HL-60(TB) leukemia = system: HL-60(TB) leukemia
NCI-H23 lung = system: NCI-H23 lung
CAKI-1 renal = system: CAKI-1 renal
BT-549 breast = system: BT-549 breast
HCC-2998 colon = system: HCC-2998 colon
SK-MEL-2 melanoma = system: SK-MEL-2 melanoma
OVCAR-5 ovarian = system: OVCAR-5 ovarian
HCT-116 colon = system: HCT-116 colon
T-47D breast = system: T-47D breast
SK-MEL-5 melanoma = system: SK-MEL-5 melanoma
TK-10 renal = system: TK-10 renal
DU-145 prostate = system: DU-145 prostate
UACC-257 melanoma = system: UACC-257 melanoma
SNB-19 CNS = system: SNB-19 CNS
IGROV1 ovarian = system: IGROV1 ovarian
K-562 leukemia = system: K-562 leukemia
OVCAR-3 ovarian = system: OVCAR-3 ovarian
NCI-H226 lung = system: NCI-H226 lung
RXF 393 renal = system: RXF 393 renal
EKVX NSCLC = system: EKVX NSCLC
SR leukemia = system: SR leukemia
UO-31 renal = system: UO-31 renal
COLO 205 colon = system: COLO 205 colon
786-0 renal = system: 786-0 renal
PC-3 prostate = system: PC-3 prostate
MCF7 breast = system: MCF7 breast
MDA-MB-435 = system: MDA-MB-435
UACC-62 melanoma = system: UACC-62 melanoma
HOP-62 NSCLC = system: HOP-62 NSCLC
SW-620 colon = system: SW-620 colon
NCI-H522 lung = system: NCI-H522 lung
MALME-3M melanoma = system: MALME-3M melanoma
SK-MEL-28 melanoma = system: SK-MEL-28 melanoma
SNB-75 CNS = system: SNB-75 CNS
SF-295 CNS = system: SF-295 CNS
ACHN renal = system: ACHN renal
MDA-MB-231 breast = system: MDA-MB-231 breast
MDA-N = system: MDA-N
U251 CNS = system: U251 CNS
SF-268 CNS = system: SF-268 CNS
HOP-92 NSCLC = system: HOP-92 NSCLC
LOX IMVI melanoma = system: LOX IMVI melanoma
SK-OV-3 ovarian = system: SK-OV-3 ovarian
A549 NSCLC = system: A549 NSCLC
NCI-H460 lung = system: NCI-H460 lung
SF-539 CNS = system: SF-539 CNS
HT29 colon = system: HT29 colon
A498 renal = system: A498 renal
RPMI-8226 leukemia = system: RPMI-8226 leukemia
MOLT-4 leukemia = system: MOLT-4 leukemia
NCI/ADR-RES ovarian = system: NCI/ADR-RES ovarian
M14 melanoma = system: M14 melanoma
KM12 colon = system: KM12 colon
CCRF-CEM leukemia = system: CCRF-CEM leukemia
HCT-15 colon = system: HCT-15 colon

SMILES: Cc1cccc2c1CC(C1OC(=O)c3ccccc31)C2=O (configuration not stated)
- TGI (HS 578T breast): > 100 µM
- TGI (OVCAR-8 ovarian): > 100 µM
- TGI (OVCAR-4 ovarian): > 100 µM
- TGI (SN12C renal): > 100 µM
- TGI (HL-60(TB) leukemia): > 100 µM
- TGI (NCI-H23 lung): > 100 µM
- TGI (CAKI-1 renal): > 100 µM
- TGI (BT-549 breast): > 100 µM
- TGI (HCC-2998 colon): > 100 µM
- TGI (SK-MEL-2 melanoma): > 100 µM
- TGI (OVCAR-5 ovarian): > 100 µM
- TGI (HCT-116 colon): > 100 µM
- TGI (T-47D breast): > 100 µM
- TGI (SK-MEL-5 melanoma): > 100 µM
- TGI (TK-10 renal): > 100 µM
- TGI (DU-145 prostate): > 100 µM
- TGI (UACC-257 melanoma): > 100 µM
- TGI (SNB-19 CNS): > 100 µM
- TGI (IGROV1 ovarian): > 100 µM
- TGI (K-562 leukemia): > 100 µM
- TGI (OVCAR-3 ovarian): > 100 µM
- TGI (NCI-H226 lung): > 100 µM
- TGI (RXF 393 renal): > 100 µM
- TGI (EKVX NSCLC): > 100 µM
- TGI (SR leukemia): > 100 µM
- TGI (UO-31 renal): > 100 µM
- TGI (COLO 205 colon): > 100 µM
- TGI (786-0 renal): > 100 µM
- TGI (PC-3 prostate): > 100 µM
- TGI (MCF7 breast): > 100 µM
- TGI (MDA-MB-435): > 100 µM
- TGI (UACC-62 melanoma): > 100 µM
- TGI (HOP-62 NSCLC): > 100 µM
- TGI (SW-620 colon): > 100 µM
- TGI (NCI-H522 lung): > 100 µM
- TGI (MALME-3M melanoma): > 100 µM
- TGI (SK-MEL-28 melanoma): > 100 µM
- TGI (SNB-75 CNS): > 100 µM
- TGI (SF-295 CNS): > 100 µM
- TGI (ACHN renal): > 100 µM
- TGI (MDA-MB-231 breast): > 100 µM
- TGI (MDA-N): > 100 µM
- TGI (U251 CNS): > 100 µM
- TGI (SF-268 CNS): > 100 µM
- TGI (HOP-92 NSCLC): > 100 µM
- TGI (LOX IMVI melanoma): > 100 µM
- TGI (SK-OV-3 ovarian): > 100 µM
- TGI (A549 NSCLC): > 100 µM
- TGI (NCI-H460 lung): > 100 µM
- TGI (SF-539 CNS): > 100 µM
- TGI (HT29 colon): > 100 µM
- TGI (A498 renal): > 100 µM
- TGI (RPMI-8226 leukemia): > 100 µM
- TGI (MOLT-4 leukemia): > 100 µM
- TGI (NCI/ADR-RES ovarian): > 100 µM
- TGI (M14 melanoma): > 100 µM
- TGI (KM12 colon): > 100 µM
- TGI (CCRF-CEM leukemia): > 100 µM
- TGI (HCT-15 colon): > 100 µM

SMILES: CC(C)=CC(=O)c1[nH]c2ccccc2c1CC(=O)NCCc1cn(C(c2ccccc2)(c2ccccc2)c2ccccc2)cn1
- TGI (HS 578T breast): > 56.5 µM
- TGI (OVCAR-8 ovarian): > 100 µM
- TGI (OVCAR-4 ovarian): > 58.7 µM
- TGI (SN12C renal): > 23.9 µM
- TGI (HL-60(TB) leukemia): 3.44 µM
- TGI (NCI-H23 lung): > 36.2 µM
- TGI (CAKI-1 renal): > 100 µM
- TGI (BT-549 breast): 11 µM
- TGI (HCC-2998 colon): 3.78 µM
- TGI (SK-MEL-2 melanoma): 3.54 µM
- TGI (OVCAR-5 ovarian): 87.7 µM
- TGI (HCT-116 colon): 10.6 µM
- TGI (T-47D breast): > 100 µM
- TGI (SK-MEL-5 melanoma): 3.84 µM
- TGI (TK-10 renal): > 100 µM
- TGI (DU-145 prostate): > 100 µM
- TGI (UACC-257 melanoma): > 67.4 µM
- TGI (SNB-19 CNS): > 30.4 µM
- TGI (IGROV1 ovarian): > 45 µM
- TGI (K-562 leukemia): > 59.6 µM
- TGI (OVCAR-3 ovarian): > 100 µM
- TGI (NCI-H226 lung): 6.28 µM
- TGI (RXF 393 renal): 13.5 µM
- TGI (EKVX NSCLC): > 100 µM
- TGI (SR leukemia): 4.88 µM
- TGI (UO-31 renal): > 29.4 µM
- TGI (COLO 205 colon): 3.4 µM
- TGI (786-0 renal): > 100 µM
- TGI (PC-3 prostate): 6.75 µM
- TGI (MCF7 breast): > 100 µM
- TGI (MDA-MB-435): 4.42 µM
- TGI (UACC-62 melanoma): 4.72 µM
- TGI (HOP-62 NSCLC): > 100 µM
- TGI (SW-620 colon): > 100 µM
- TGI (NCI-H522 lung): 19.8 µM
- TGI (MALME-3M melanoma): 12.5 µM
- TGI (SK-MEL-28 melanoma): 12.4 µM
- TGI (SNB-75 CNS): > 100 µM
- TGI (SF-295 CNS): > 100 µM
- TGI (ACHN renal): > 100 µM
- TGI (MDA-MB-231 breast): 6.36 µM
- TGI (MDA-N): 9.75 µM
- TGI (U251 CNS): 9.17 µM
- TGI (SF-268 CNS): > 53.3 µM
- TGI (HOP-92 NSCLC): > 26.1 µM
- TGI (LOX IMVI melanoma): 4.46 µM
- TGI (SK-OV-3 ovarian): > 100 µM
- TGI (A549 NSCLC): > 27.4 µM
- TGI (NCI-H460 lung): 10.6 µM
- TGI (SF-539 CNS): 5.21 µM
- TGI (HT29 colon): > 42.7 µM
- TGI (A498 renal): > 50.5 µM
- TGI (RPMI-8226 leukemia): 5.23 µM
- TGI (MOLT-4 leukemia): 5.49 µM
- TGI (NCI/ADR-RES ovarian): 10.8 µM
- TGI (M14 melanoma): 4.8 µM
- TGI (KM12 colon): 14.2 µM
- TGI (CCRF-CEM leukemia): > 24.3 µM
- TGI (HCT-15 colon): > 40.4 µM

SMILES: COc1ccc(N2C(=O)C3c4[nH]c5ccccc5c4C4CCC(c5ccccc5)CC4C3C2=O)cc1 (configuration not stated)
- TGI (HS 578T breast): 21.5 µM
- TGI (OVCAR-8 ovarian): 37.2 µM
- TGI (OVCAR-4 ovarian): > 49.5 µM
- TGI (SN12C renal): > 68.4 µM
- TGI (HL-60(TB) leukemia): > 34.8 µM
- TGI (NCI-H23 lung): > 51.7 µM
- TGI (CAKI-1 renal): 36.1 µM
- TGI (BT-549 breast): > 58.3 µM
- TGI (HCC-2998 colon): > 44.9 µM
- TGI (SK-MEL-2 melanoma): 53.2 µM
- TGI (OVCAR-5 ovarian): > 100 µM
- TGI (HCT-116 colon): > 100 µM
- TGI (T-47D breast): > 100 µM
- TGI (SK-MEL-5 melanoma): > 87.8 µM
- TGI (TK-10 renal): 35.5 µM
- TGI (DU-145 prostate): > 100 µM
- TGI (UACC-257 melanoma): 97.5 µM
- TGI (SNB-19 CNS): 43.2 µM
- TGI (IGROV1 ovarian): 68.8 µM
- TGI (K-562 leukemia): > 41.3 µM
- TGI (OVCAR-3 ovarian): > 100 µM
- TGI (NCI-H226 lung): > 96.7 µM
- TGI (RXF 393 renal): 25.6 µM
- TGI (EKVX NSCLC): 55.6 µM
- TGI (SR leukemia): 7.15 µM
- TGI (UO-31 renal): > 88.2 µM
- TGI (COLO 205 colon): > 78.2 µM
- TGI (786-0 renal): > 34.9 µM
- TGI (PC-3 prostate): > 78.5 µM
- TGI (MCF7 breast): > 100 µM
- TGI (MDA-MB-435): > 100 µM
- TGI (UACC-62 melanoma): 50.3 µM
- TGI (HOP-62 NSCLC): 27.7 µM
- TGI (SW-620 colon): > 100 µM
- TGI (NCI-H522 lung): > 44 µM
- TGI (MALME-3M melanoma): 18.3 µM
- TGI (SK-MEL-28 melanoma): > 96.2 µM
- TGI (SNB-75 CNS): 19.1 µM
- TGI (SF-295 CNS): > 51.1 µM
- TGI (ACHN renal): 47.9 µM
- TGI (MDA-MB-231 breast): 41.5 µM
- TGI (MDA-N): > 81.5 µM
- TGI (U251 CNS): 21.1 µM
- TGI (SF-268 CNS): 43.8 µM
- TGI (HOP-92 NSCLC): 61.8 µM
- TGI (LOX IMVI melanoma): > 54.1 µM
- TGI (SK-OV-3 ovarian): 54.8 µM
- TGI (A549 NSCLC): > 78.1 µM
- TGI (NCI-H460 lung): > 43.1 µM
- TGI (SF-539 CNS): 7.4 µM
- TGI (HT29 colon): > 100 µM
- TGI (A498 renal): 50.6 µM
- TGI (RPMI-8226 leukemia): 78.6 µM
- TGI (MOLT-4 leukemia): > 100 µM
- TGI (NCI/ADR-RES ovarian): > 59.3 µM
- TGI (M14 melanoma): > 94.4 µM
- TGI (KM12 colon): > 100 µM
- TGI (CCRF-CEM leukemia): 53 µM
- TGI (HCT-15 colon): > 100 µM
